Results from ChEMBL document CHEMBL4402510, “Caprazamycins: Promising lead structures acting on a novel antibacterial target MraY” (Eur J Med Chem, 2019).
≈ marks a conversion by molar mass, not a printed value.

Tests used:
Format in all cases: functional
[1] = tested on: Mycobacterium tuberculosis; assay: Antibacterial activity against Mycobacterium tuberculosis Kurono
[2] = tested on: Staphylococcus aureus; assay: Antibacterial activity against methicillin resistant Staphylococcus aureus No. 5
[3] = tested on: Mycobacterium tuberculosis; assay: Antibacterial activity against Mycobacterium tuberculosis JCM 6384
[4] = tested on: Mycolicibacterium phlei; assay: Antibacterial activity against Mycobacterium phlei
[5] = tested on: Mycolicibacterium vaccae; assay: Antibacterial activity against Mycobacterium vaccae ATCC 15483
[6] = tested on: Streptococcus pneumoniae; assay: Antibacterial activity against Streptococcus pneumoniae PCI 602
[7] = tested on: Staphylococcus aureus; assay: Antibacterial activity against Staphylococcus aureus FDA 209P
[8] = tested on: Bacillus subtilis; assay: Antibacterial activity against Bacillus subtilis PCI 219
[9] = Antibacterial activity against Mycobacterium avium subsp. avium ATCC 25291
[10] = tested on: Escherichia coli; assay: Antibacterial activity against Escherichia coli K-12
[11] = tested on: Mycolicibacterium smegmatis; assay: Antibacterial activity against Mycobacterium smegmatis ATCC 607
[12] = tested on: Mycobacterium avium subsp. paratuberculosis; assay: Antibacterial activity against Mycobacterium avium subsp. paratuberculosis ATCC 43015
[13] = tested on: Mycobacterium tuberculosis; assay: Antibacterial activity against Mycobacterium tuberculosis H37Rv
[14] = tested on: Staphylococcus aureus; assay: Antibacterial activity against methicillin resistant Staphylococcus aureus MS16526
[15] = tested on: Enterococcus faecalis; assay: Antibacterial activity against Enterococcus faecalis ATCC 29212
[16] = tested on: Enterococcus faecalis; assay: Antibacterial activity against Enterococcus faecalis SR7914 (VRE)
[17] = tested on: Haemophilus influenzae; assay: Antibacterial activity against Haemophilus influenzae ATCC 10211

Structure (SMILES)	MIC [1]	MIC [2]	MIC [3]	MIC [4]	MIC [5]	MIC [6]	MIC [7]	MIC [8]	MIC [9]	MIC [10]	MIC [11]	MIC [12]	MIC [13]	MIC [14]	MIC [15]	MIC [16]	MIC [17]
CN1C(=O)[C@H]([C@H](O[C@@H]2O[C@H](CN)[C@@H](O)[C@H]2O)[C@H]2O[C@@H](n3ccc(=O)[nH]c3=O)[C@H](O)[C@@H]2O)N(C)CC=C1C(=O)NC1CCCCCCCCCCC1	1.56 µg/mL (≈ 2.16 µM)	> 100 µg/mL	< 0.05 µg/mL	6.25 µg/mL (≈ 8.65 µM)	25 µg/mL (≈ 34.6 µM)	> 100 µg/mL	100 µg/mL (≈ 138 µM)	1.56 µg/mL (≈ 2.16 µM)	3.13 µg/mL (≈ 4.33 µM)	> 100 µg/mL	3.13 µg/mL (≈ 4.33 µM)	0.05 µg/mL (≈ 0.0692 µM)	1.56 µg/mL (≈ 2.16 µM)	> 100 µg/mL			
CCCCCCCCCCCCCCCNC(=O)C1=CCN(C)[C@@H]([C@H](O[C@@H]2O[C@H](CN)[C@@H](O)[C@H]2O)[C@H]2O[C@@H](n3ccc(=O)[nH]c3=O)[C@H](O)[C@@H]2O)C(=O)N1C	1.56 µg/mL (≈ 2.03 µM)	> 100 µg/mL	1.56 µg/mL (≈ 2.03 µM)	6.25 µg/mL (≈ 8.15 µM)	6.25 µg/mL (≈ 8.15 µM)	3.13 µg/mL (≈ 4.08 µM)	< 0.2 µg/mL	1.56 µg/mL (≈ 2.03 µM)	3.13 µg/mL (≈ 4.08 µM)	1.56 µg/mL (≈ 2.03 µM)	1.56 µg/mL (≈ 2.03 µM)	0.78 µg/mL (≈ 1.02 µM)	1.56 µg/mL (≈ 2.03 µM)	50 µg/mL (≈ 65.2 µM)			
CCCCCCCCNC(=O)C1=CCN(C)[C@@H]([C@H](O[C@@H]2O[C@H](CN)[C@@H](O)[C@H]2O)[C@H]2O[C@@H](n3ccc(=O)[nH]c3=O)[C@H](O)[C@@H]2O)C(=O)N1C	0.78 µg/mL (≈ 1.17 µM)	3.13 µg/mL (≈ 4.68 µM)	12.5 µg/mL (≈ 18.7 µM)	100 µg/mL (≈ 150 µM)	100 µg/mL (≈ 150 µM)	> 100 µg/mL	100 µg/mL (≈ 150 µM)	> 100 µg/mL	3.13 µg/mL (≈ 4.68 µM)	> 100 µg/mL	6.25 µg/mL (≈ 9.35 µM)	25 µg/mL (≈ 37.4 µM)	3.3 µg/mL (≈ 4.93 µM)	> 100 µg/mL			
CCCCCCNC(=O)C1=CCN(C)[C@@H]([C@H](O[C@@H]2O[C@H](CN)[C@@H](O)[C@H]2O)[C@H]2O[C@@H](n3ccc(=O)[nH]c3=O)[C@H](O)[C@@H]2O)C(=O)N1C	1.56 µg/mL (≈ 2.43 µM)	> 100 µg/mL	1.56 µg/mL (≈ 2.43 µM)	100 µg/mL (≈ 156 µM)	100 µg/mL (≈ 156 µM)	> 100 µg/mL	> 100 µg/mL	25 µg/mL (≈ 39 µM)	12.5 µg/mL (≈ 19.5 µM)	> 100 µg/mL	50 µg/mL (≈ 78 µM)	0.78 µg/mL (≈ 1.22 µM)	3.16 µg/mL (≈ 4.93 µM)	> 100 µg/mL			
CCCCc1ccc(NC(=O)C2=CCN[C@@H]([C@H](O[C@@H]3O[C@H](CN)[C@@H](O)[C@H]3O)[C@H]3O[C@@H](n4ccc(=O)[nH]c4=O)[C@H](O)[C@@H]3O)C(=O)N2C)cc1	1.56 µg/mL (≈ 2.31 µM)	100 µg/mL (≈ 148 µM)	0.2 µg/mL (≈ 0.296 µM)	12.5 µg/mL (≈ 18.5 µM)	50 µg/mL (≈ 74.1 µM)	50 µg/mL (≈ 74.1 µM)	25 µg/mL (≈ 37.1 µM)	3.13 µg/mL (≈ 4.64 µM)	1.56 µg/mL (≈ 2.31 µM)	> 100 µg/mL	6.25 µg/mL (≈ 9.26 µM)	0.39 µg/mL (≈ 0.578 µM)	1.56 µg/mL (≈ 2.31 µM)	100 µg/mL (≈ 148 µM)			
CCCCCCCCCCCCCCCCCCOC(=O)C1=CCN(C)[C@@H]([C@H](O[C@@H]2O[C@H](CN)[C@@H](O)[C@H]2O)[C@H]2O[C@@H](n3ccc(=O)[nH]c3=O)[C@H](O)[C@@H]2O)C(=O)N1C	3.13 µg/mL (≈ 3.86 µM)	50 µg/mL (≈ 61.7 µM)	6.25 µg/mL (≈ 7.72 µM)	> 100 µg/mL	> 100 µg/mL	> 100 µg/mL	25 µg/mL (≈ 30.9 µM)	3.13 µg/mL (≈ 3.86 µM)	12.5 µg/mL (≈ 15.4 µM)	> 100 µg/mL	> 100 µg/mL	3.13 µg/mL (≈ 3.86 µM)	6.25 µg/mL (≈ 7.72 µM)	50 µg/mL (≈ 61.7 µM)			
CCCCCCCCCCCCCCCC(=O)OC[C@@H]1[C@H](C(=O)N(C)C)[C@@H]([C@H]2O[C@@H](n3ccc(=O)[nH]c3=O)[C@H](O)[C@@H]2O)ON1CCCN															16 µg/mL (≈ 23.5 µM)	4 µg/mL (≈ 5.87 µM)	0.5 µg/mL (≈ 0.733 µM)
CCCCCCCCCCCCCNC(=O)C1=CCN(C)[C@@H]([C@H](O[C@@H]2O[C@H](CN)[C@@H](O)[C@H]2O)[C@H]2O[C@@H](n3ccc(=O)[nH]c3=O)[C@H](O)[C@@H]2O)C(=O)N1C	1.56 µg/mL (≈ 2.11 µM)	6.25 µg/mL (≈ 8.46 µM)	0.2 µg/mL (≈ 0.271 µM)	0.78 µg/mL (≈ 1.06 µM)	0.78 µg/mL (≈ 1.06 µM)	6.25 µg/mL (≈ 8.46 µM)	3.13 µg/mL (≈ 4.24 µM)	0.39 µg/mL (≈ 0.528 µM)	3.13 µg/mL (≈ 4.24 µM)	100 µg/mL (≈ 135 µM)	0.39 µg/mL (≈ 0.528 µM)	0.1 µg/mL (≈ 0.135 µM)	1.56 µg/mL (≈ 2.11 µM)	3.13 µg/mL (≈ 4.24 µM)			
CCCCCCCCCCCNC(=O)C1=CCN(C)[C@@H]([C@H](O[C@@H]2O[C@H](CN)[C@@H](O)[C@H]2O)[C@H]2O[C@@H](n3ccc(=O)[nH]c3=O)[C@H](O)[C@@H]2O)C(=O)N1C	1.56 µg/mL (≈ 2.19 µM)	25 µg/mL (≈ 35.2 µM)	0.2 µg/mL (≈ 0.281 µM)	0.39 µg/mL (≈ 0.549 µM)	1.56 µg/mL (≈ 2.19 µM)	50 µg/mL (≈ 70.3 µM)	6.25 µg/mL (≈ 8.79 µM)	0.39 µg/mL (≈ 0.549 µM)	3.13 µg/mL (≈ 4.4 µM)	> 100 µg/mL	< 0.2 µg/mL	0.2 µg/mL (≈ 0.281 µM)	1.56 µg/mL (≈ 2.19 µM)	12.5 µg/mL (≈ 17.6 µM)			
